Measurements from paper PMC5078989, “Targeted inhibition of the COP9 signalosome for treatment of cancer” (Nature Communications, 2016).

Tests used:
HCT116 cells = assay: Immunoblotting of cullins, CRL components and substrates in HCT116 cells; type: cell-based, human; conditions: qualitative western blot analysis
Procedure: Figure 2 CSN5 inhibition results in the inactivation of a subset of CRLs and the stabilization of their substrates. Effect on CRL components and substrates after treatment of HCT116 cells with either 1 μM MLN4924 or 1 μM CSN5i-3. (a) Immunoblottings for Cul1 and its CRL components Rbx and Skp1; (b) for cullins Cul2, Cul3 and Cul4A; (c) for F-box protein Skp2 and the SCF^Skp2 substrates p21 and p27; (d) for F-box proteins Fbxo22 and Fbxo30; (e) for F-box protein βTrCP and the SCF^βTrCP substrates Wee1 and pIκBα; (f) for the adaptor KEAP1 and the Cul3^KEAP1 substrate Nrf2; (g) for F-box proteins Fbxw7 and Fbxo3.
Cells were maintained in a humidified incubator at 37 °C and 5% CO2. HCT116 cells (ATCC #CCL-247) were grown in McCoy's 5A medium (GIBCO #16600–082) supplemented with 10% fetal bovine serum (FBS), TE-1 (RIKEN BioResource Center, #RCB1894), NCI-H2030 (ATCC #CRL-591), SU-DHL-1 (DMSZ #ACC 356), NOMO-1 (HSRRB #IFO50474) and NCIH196 cells (ATCC, #CRL-5823) in RPMI-1640 medium (GIBCO#61870–010) supplemented with 10% FBS, 10 mM HEPES, 1 mM sodium pyruvate and THP-1 cells (ATCC #TIB-202) with additional 0.05 mM 2-mercaptoethanol. DMS273 cells (ECACC #950628) were cultured in Waymouth's MB 752/1 medium (GIBCO#11220–035) supplemented with 10% FBS. All cells were negatively tested for mycoplasma contamination either by the vendor or in house. For treatment with compounds, sub-confluent cells were either treated with inhibitors at the indicated concentrations or mock treated with an equivalent amount of DMSO (final content 0.1%). If not stated otherwise, cells were harvested after incubation for 16 h and subjected to SDS–PAGE and western blotting. The RNA interference experiment was performed with CSN5 stealth siRNA (#HSS116986) and stealth negative control siRNA (#12935–400) (Invitrogen), which were transfected at 10 nM into HCT116 cells using HiperFect (Qiagen) according to the manufacturer's protocols. Seventy-two hours after transfection, cells were harvested and subjected to SDS–PAGE and western blotting (see Supplementary Fig. 7 for all western blottings performed).
For further analysis, cell lysates were prepared by direct lysis with 2 × Sample buffer (65.8 mM Tris-HCl, pH 6.8, 2.1% SDS, 26.3% glycerol, 0.01% bromophenol blue and 20 mM DTT). Protein lysates from tumour powder were prepared in RIPA buffer (50 mM Tris-HCl pH 8.0, 150 mM NaCl, 1% Triton X-100, 2 mM EDTA, 0.5% sodium deoxycholate and 0.1% SDS) supplemented with 10 mM N-ethylmaleimide, protease inhibitor and phosphatase inhibitor cocktails (Roche Diagnostics). Cells from longer compound incubations were also lysed in RIPA buffer, which allows the protein concentration to be determined by BCA Protein Assay Kit (Pierce). Proteins were separated by SDS–PAGE using 4–20% Tris-Glycine Gels (Invitrogen) and subsequently transferred to polyvinylidene difluoride membranes using a Trans-Blot Turbo System (BioRad). […] Horseradish peroxidase-conjugated secondary antibodies (1:3,000) were purchased from Promega AG and bound antibody was detected by enhanced chemiluminescence (Pierce).

[1] = test system: panel of cancer cell lines; assay: Cell viability (CellTiter-Glo) dose-response across cancer cell line panel; type: cell-based, human; conditions: SNB-19;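 further: after 72 h compound incubation with CellTiter-Glo ATP readout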
Text: Next, we explored the effect of CSN5 inhibition on the viability of cancer cells. To obtain a comprehensive picture, we generated dose–response curves with a CSN5 inhibitor across more than 500 cancer cell lines in a previously described standardized setting[47] (Supplementary Data 1).
A standardized CellTiter-Glo Assay (Promega #G7570) based on the quantification of ATP was applied according to the manufacturer's protocol to measure the amount of viable cells in culture. In brief, cells were seeded into 384-well plates at optimal density for each cell line. After 4 h, compounds were added at different concentrations in growth medium and incubated for another 72 h in a humidifying chamber at 37 °C and 5% CO2. […] EC50 values were calculated from the plot of percentage of inhibition versus inhibitor concentration using the nonlinear regression analysis software Origin 7.5SR6 (OriginLab Corp.).

For `N#Cc1ccc([C@H]2[C@@H](O)CCCc3cncn32)c(-c2ccccc2)c1` (relative stereo) [CSN5i-1a, Cis-6-(6-Hydroxy-6,7,8,9-tetrahydro-5H-imidazo[1,5-a]azepin-5-yl)-[1,1′-biphenyl]-3-carbonitrile], the “cullin-1 (Cul1) deneddylation in HCT116 cells” value (HCT116 cells) was “weakly inhibited”.
In the case of `CC(C)C[C@H](NC(=O)[C@H](Cc1ccccc1)NC(=O)c1cnccn1)B(O)O` [Botezomib], the EC50 [1] is reported as 9.53 nM.
